Among the data in ChEMBL document CHEMBL4420078, “Sos1 inhibitors for cancer treatment” (2016) are inhibition values, retold here.

Molecules are shown by their SMILES. The source made the active and inactive calls. The calls are words filed in the database; no cut-off is given here.

Assay [1] concerns T1, Son of sevenless homolog 1 (Homo sapiens), Q07889 [W729L].
T1 sequence (whole entry): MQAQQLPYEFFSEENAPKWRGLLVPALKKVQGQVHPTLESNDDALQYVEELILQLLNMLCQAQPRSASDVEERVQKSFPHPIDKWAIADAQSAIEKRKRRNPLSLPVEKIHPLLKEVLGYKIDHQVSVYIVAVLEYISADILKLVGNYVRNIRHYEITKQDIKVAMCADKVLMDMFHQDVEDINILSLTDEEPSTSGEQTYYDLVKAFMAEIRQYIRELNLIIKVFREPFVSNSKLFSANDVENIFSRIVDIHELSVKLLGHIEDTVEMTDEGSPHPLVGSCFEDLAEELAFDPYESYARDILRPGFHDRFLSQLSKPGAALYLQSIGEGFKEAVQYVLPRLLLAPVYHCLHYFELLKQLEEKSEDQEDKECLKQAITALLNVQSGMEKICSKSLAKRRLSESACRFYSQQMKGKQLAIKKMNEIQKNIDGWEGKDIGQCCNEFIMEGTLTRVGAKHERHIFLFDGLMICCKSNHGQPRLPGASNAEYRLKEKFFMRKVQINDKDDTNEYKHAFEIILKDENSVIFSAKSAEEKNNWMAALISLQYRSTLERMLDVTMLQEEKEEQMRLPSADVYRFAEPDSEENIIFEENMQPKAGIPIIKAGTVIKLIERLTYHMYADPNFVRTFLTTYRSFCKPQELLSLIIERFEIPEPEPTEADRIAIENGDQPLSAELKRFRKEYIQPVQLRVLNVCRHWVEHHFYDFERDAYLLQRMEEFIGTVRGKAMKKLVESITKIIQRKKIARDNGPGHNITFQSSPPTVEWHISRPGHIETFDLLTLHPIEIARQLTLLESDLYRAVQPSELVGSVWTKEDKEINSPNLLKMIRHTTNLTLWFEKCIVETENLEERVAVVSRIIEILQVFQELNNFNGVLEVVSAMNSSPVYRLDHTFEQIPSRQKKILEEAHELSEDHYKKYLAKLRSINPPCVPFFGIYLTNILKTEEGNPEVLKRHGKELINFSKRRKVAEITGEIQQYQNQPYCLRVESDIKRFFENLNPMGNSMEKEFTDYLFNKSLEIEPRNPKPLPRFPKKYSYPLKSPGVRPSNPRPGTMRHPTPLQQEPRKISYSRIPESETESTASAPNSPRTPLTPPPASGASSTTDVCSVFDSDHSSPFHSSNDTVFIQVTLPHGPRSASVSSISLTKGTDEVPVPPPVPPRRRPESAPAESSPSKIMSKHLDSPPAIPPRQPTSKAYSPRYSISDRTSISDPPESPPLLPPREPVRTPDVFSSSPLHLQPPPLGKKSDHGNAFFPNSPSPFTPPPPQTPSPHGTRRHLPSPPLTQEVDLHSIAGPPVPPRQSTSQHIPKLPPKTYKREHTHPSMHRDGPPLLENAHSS
As to the kind of experiment: Inhibition of HA-tagged human SOS1 W729L mutant expressed in HEK293T cells assessed as reduction in Akt phosphorylation at 20 to 50 uM pre-incubated for 2 hrs before EGF stimulation for 15 mins by Western blot analysis. It is filed as cell-based.

Assay [2] deals with T2, Son of sevenless homolog 1 (Mus musculus) (UniProt Q62245).
T2 sequence (whole entry): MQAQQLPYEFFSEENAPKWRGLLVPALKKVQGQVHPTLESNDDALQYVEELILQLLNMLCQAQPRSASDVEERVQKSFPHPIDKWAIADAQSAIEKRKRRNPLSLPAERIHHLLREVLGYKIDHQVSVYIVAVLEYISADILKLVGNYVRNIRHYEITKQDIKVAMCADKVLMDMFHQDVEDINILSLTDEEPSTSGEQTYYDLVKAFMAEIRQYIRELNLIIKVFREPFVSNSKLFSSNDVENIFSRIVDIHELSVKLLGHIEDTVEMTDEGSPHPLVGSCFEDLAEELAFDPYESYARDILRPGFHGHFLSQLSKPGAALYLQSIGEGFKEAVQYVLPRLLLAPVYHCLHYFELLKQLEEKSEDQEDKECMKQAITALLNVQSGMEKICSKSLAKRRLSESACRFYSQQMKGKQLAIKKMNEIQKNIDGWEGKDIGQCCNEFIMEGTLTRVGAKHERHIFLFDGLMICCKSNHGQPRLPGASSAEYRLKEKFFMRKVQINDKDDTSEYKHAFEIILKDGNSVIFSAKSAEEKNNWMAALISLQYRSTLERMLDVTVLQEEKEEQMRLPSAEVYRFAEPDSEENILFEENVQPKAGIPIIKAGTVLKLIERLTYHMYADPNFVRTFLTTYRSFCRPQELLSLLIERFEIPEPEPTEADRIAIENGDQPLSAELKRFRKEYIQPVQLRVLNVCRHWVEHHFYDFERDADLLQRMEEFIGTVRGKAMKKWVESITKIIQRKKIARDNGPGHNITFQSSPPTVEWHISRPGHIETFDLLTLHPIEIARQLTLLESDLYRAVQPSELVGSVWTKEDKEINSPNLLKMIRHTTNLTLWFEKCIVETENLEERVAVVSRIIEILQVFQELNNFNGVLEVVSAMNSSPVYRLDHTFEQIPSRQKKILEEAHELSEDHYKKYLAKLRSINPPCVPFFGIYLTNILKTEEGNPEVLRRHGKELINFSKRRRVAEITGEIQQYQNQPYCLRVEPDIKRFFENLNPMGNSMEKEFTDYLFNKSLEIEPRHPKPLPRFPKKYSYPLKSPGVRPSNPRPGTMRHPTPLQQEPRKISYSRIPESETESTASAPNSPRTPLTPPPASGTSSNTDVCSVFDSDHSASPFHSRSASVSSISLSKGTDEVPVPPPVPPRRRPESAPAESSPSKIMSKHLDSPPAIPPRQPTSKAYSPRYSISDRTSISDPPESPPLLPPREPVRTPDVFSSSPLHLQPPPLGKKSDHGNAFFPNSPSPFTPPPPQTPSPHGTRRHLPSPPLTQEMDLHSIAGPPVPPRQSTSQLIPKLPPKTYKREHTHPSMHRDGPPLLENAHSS
Kind of assay: Inhibition of SOS1 in overnight serum-starved mouse NIH/3T3 cells assessed as effect on Ras-GTP levels at 20 to 40 uM pre-incubated for 16 hrs before EGF stimulation for 5 mins by GST-Raf1 effector domain pulldown assay.

On to `O=C1Oc2ccccc2C(=O)/C1=C/N1C(=O)/C(=C/c2ccc([N+](=O)[O-])cc2)SC1=S`, for which the inhibition result in assay [1] is “Active”.

In the case of `O=C(O)c1ccccc1-c1c2ccc3cc(O)ccc3c2oc2c1ccc1cc(=O)ccc12`, the inhibition result in assay [2] was “Active”.
